# Test results published in patent publication US10829742B2, “Production of xylitol from glucose by a recombinant strain” (ROQUETTE FRERES, priority 2014, dated 2020).
# Read-outs that look alike come from different tables or passages of the source.
# Columns and labels:
# [1] = test system: NADPH-specific D-ketopentose-oxidoreductase; details: crude extract; cited from earlier work
# [2] = test system: NADH-specific D-ketopentose-oxidoreductase; details: crude extract; cited from earlier work
# [3] = test system: Acid phosphatase; details: crude extract; cited from earlier work
# [4] = test system: D-Ribulose-5-P 3-epimerase; details: crude extract; cited from earlier work
# [5] = test system: D-Ribose-5-P keto-isomerase; details: crude extract; cited from earlier work
# [6] = test system: NADPH-specific D-ketopentose-oxidoreductase; experiment: NADPH-specific D-ketopentose-oxidoreductase kinetic parameters; type: biochemical, P. ohmeri ATCC 20209; details: NADP^+ added in excess, in vitro
# Description: As an illustration of its performances, the following tables indicate the enzyme activities involved in the arabitol metabolic pathway of Pichia ohmeri (Sophie […] Thesis, 1992) The Michaelis-Menten constants highlight the affinities of the NADH and NADPH-D-ketopentose-oxidoreductases for each substrate and the corresponding maximum velocities. [table] The Haldane relationship predicts in vivo enzyme kinetic behaviors. The inhibitory effect of NADP^+ on NADPH-specific D-ketopentose-oxidoreductase has been determined in vitro. The activity is 80% less when NADP^+ is added in excess.
# [7] = test system: Transketolase; details: crude extract, cited from earlier work
compound,measurement,setting,value
OC[C@@H](O)C(O)[C@H](O)CO [D-Arabitol],VM,[1],0.8 U/mg
O=C(CO)[C@@H](O)[C@H](O)CO [D-Xylulose],Km,[2],5 mM
same,VM,[2],0.6 U/mg
same,VM,[1],1.5 U/mg
OC[C@@H](O)[C@@H](O)[C@@H](O)CO [Ribitol],Km,[2],16 mM
same,VM,[2],0.16 U/mg
O=C(CO)[C@H](O)[C@H](O)COP(=O)(O)O [D-Ribulose-5-P],Km,[3],4.3 mM
same,VM,[3],0.65 U/mg
same,Km,[4],6.3 mM
same,VM,[4],3 U/mg
same,Km,[5],0.35 mM
same,VM,[5],1.8 U/mg
NC(=O)c1ccc[n+]([C@@H]2O[C@H](COP(=O)([O-])OP(=O)(O)OC[C@H]3O[C@@H](n4cnc5c(N)ncnc54)[C@H](OP(=O)(O)O)[C@@H]3O)[C@@H](O)[C@H]2O)c1 [NADP^+],inhibitory effect: activity less,[6],80%
O=C(CO)[C@H](O)[C@H](O)CO [D-Ribulose],Km,[2],90 mM
same,VM,[2],1 U/mg
same,Km,[1],72 mM
same,VM,[1],3.4 U/mg
OC[C@@H](O)[C@H](O)[C@@H](O)CO [Xylitol],Km,[2],7 mM
same,VM,[2],0.2 U/mg
same,VM,[1],0.15 U/mg
O=C(CO)[C@@H](O)[C@H](O)COP(=O)(O)O [D-Xylulose-5-P],Km,[3],16 mM
same,VM,[3],0.11 U/mg
same,Km,[7]; Transketolase (D-ribose-5-P),0.2 mM
same,VM,[7]; Transketolase (D-ribose-5-P),0.9 U/mg
same,Km,[7]; Transketolase (Erythrose-4-P),0.6 mM
same,VM,[7]; Transketolase (Erythrose-4-P),1.45 U/mg
same,Km,[4],6.6 mM
same,VM,[4],0.7 U/mg
